Laboratory results: patent US20070049592A1, “Bis-aryl urea compounds and methods of use” (priority 2005, published 2007)

Tested on: Human Umbilical Vein Endothelial cells
Test: HUVEC proliferation assay (VEGF)
Format: cell-based
Conditions: VEGF-stimulated HUVEC proliferation
Method: Human Umbilical Vein Endothelial cells are purchased from Clonetics, Inc., as cryopreserved cells harvested from a pool of donors. These cells, at passage 1, are thawed and expanded in EBM-2 complete medium, until passage 2 or 3. The cells are trypsinized, washed in DMEM+10% FBS+antibiotics, and spun at 1000 rpm for 10 min. Prior to centrifugation of the cells, a small amount is collected for a cell count. After centrifugation, the medium is discarded, and the cells are resuspended in the appropriate volume of DMEM+10% FBS+antibiotics to achieve a concentration of 3×10^5 cells/mL. Another cell count is performed to confirm the cell concentration. The cells are diluted to 3×10^4 cells/mL in DMEM+10% FBS+antibiotics, and 100 μL of cells are added to a 96-well plate. The cells are incubated at 37° C. for 22 h.
Prior to the completion of the incubation period, compound dilutions are prepared. Five-point, five-fold serial dilutions are prepared in DMSO, at concentrations 400-fold greater than the final concentrations desired. 2.5 μL of each compound dilution are diluted further in a total of 1 mL DMEM+10% FBS+antibiotics (400× dilution). Medium containing 0.25% DMSO is also prepared for the 0 μM compound sample. At the 22 h timepoint, the medium is removed from the cells, and 100 μL of each compound dilution is added. The cells are incubated at 37° C. for 2-3 h.
During the compound pre-incubation period, the growth factors are diluted to the appropriate concentrations. Solutions of DMEM+10% FBS+antibiotics, containing either VEGF or bFGF at the following concentrations: 50, 10, 2, 0.4, 0.08, and 0 ng/mL are prepared. For the compound-treated cells, solutions of VEGF at 550 ng/mL or bFGF at 220 ng/mL for 50 ng/mL or 20 ng/mL final concentrations, respectively, are prepared since 10 μL of each will be added to the cells (110 μL final volume). At the appropriate time after adding the compounds, the growth factors are added. VEGF is added to one set of plates, while bFGF is added to another set of plates. For the growth factor control curves, the media on wells B4-G6 of plates 1 and 2 are replaced with media containing VEGF or bFGF at the varying concentrations (50-0 ng/mL). The cells are incubated at 37° C. for an additional 72 h.
At the completion of the 72 h incubation period, the medium is removed, and the cells are washed twice with PBS. After the second wash with PBS, the plates are tapped gently to remove excess PBS, and the cells are placed at −70° C. for at least 30 min. The cells are thawed and analyzed using the CyQuant fluorescent dye (Molecular Probes C-7026), following the manufacturer's recommendations. The plates are read on a Victor/Wallac 1420 workstation at 485 nm/530 nm (excitation/emission). Raw data is collected and analyzed using a 4-parameter fit equation in XLFit. IC50 values are then determined.

SMILES	IC50
CNc1cc(N(C)C(=O)Nc2cc(C(=O)Nc3ccc(Cl)cc3)ccc2C)ncn1 [Example 40, N-(4-chlorophenyl)-4-methyl-3-(((methyl(6-(methylamino)-4-pyrimidinyl)amino)carbonyl)amino)benzamide]	< 5 µM
CNc1ncnc(N(C)C(=O)Nc2cc(C(=O)Nc3cccc(N(C)C)c3)ccc2C)n1 [Example 28]	< 5 µM
CNc1cc(N(C)C(=O)Nc2cc(C(=O)NCc3ccccc3)ccc2C)ncn1 [Example 45, 4-methyl-3-(((methyl(6-(methylamino)-4-pyrimidinyl)amino)carbonyl)amino)-N-(phenylmethyl) benzamide]	< 5 µM
CNC(=O)c1cc(N(C)C(=O)Nc2cc(C(=O)N3CCCc4ccc(C(F)(F)F)cc43)ccc2C)ccn1 [Example 71, N-methyl-4-(methyl(((2-methyl-5-((7-(trifluoromethyl)-3,4-dihydro-1(2H)-quinolinyl)carbonyl)phenyl)amino)carbonyl)amino)-2-pyridinecarboxamide]	< 5 µM
CNc1nccc(N(CCCN2CCOCC2)C(=O)Nc2cc(C(=O)Nc3cccc(C(C)C)c3)ccc2C)n1 [Example 29, 4-methyl-3-((((2-(methylamino)-4-pyrimidinyl) (3-(4-morpholinyl)propyl)amino)carbonyl)amino)-N-(3-(1-methylethyl)phenyl)benzamide]	< 5 µM
CNc1cc(N(C)C(=O)Nc2cc(C(=O)Nc3cc(C(F)(F)F)ccc3OCCN3CCCC3)ccc2C)ncn1 [Example 34, 4-methyl-3-(((methyl(6-(methylamino)-4-pyrimidinyl)amino)carbonyl)amino)-N-(2-((2-(1-pyrrolidinyl)ethyl)oxy)-5-(trifluoromethyl)phenyl)benzamide]	< 5 µM
CNc1nccc(N(CCCN2CCOCC2)C(=O)Nc2cc(C(=O)Nc3cc(C4CCCCC4)ccc3OC)ccc2C)n1 [Example 50, N-(5-cyclohexyl-2-(methyloxy)phenyl)-4-methyl-3-((((2-(methylamino)-4-pyrimidinyl)(3-(4-morpholinyl)propyl)amino)carbonyl)amino) benzamide]	< 5 µM
CNc1cc(N(C)C(=O)Nc2cc(C(=O)Nc3ccc4c(c3)N(C(C)=O)CC4(C)C)ccc2C)ncn1 [Example 21, N-(1-acetyl-3,3-dimethyl-2,3-dihydro-1H-indol-6-yl)-4-methyl-3-(((methyl(6-(methylamino)-4-pyrimidinyl)amino)carbonyl)amino)benzamide]	< 5 µM
CNc1cc(N(C)C(=O)Nc2cc(C(=O)Nc3ccccc3)ccc2C)ncn1 [Example 41, 4-methyl-3-(((methyl(6-(methylamino)-4-pyrimidinyl)amino)carbonyl)amino)-N-phenylbenzamide]	< 5 µM
CNc1ncnc(N(C)C(=O)Nc2cc(C(=O)Nc3ccc(C(C)C)c(C)c3)ccc2C)n1 [Example 38, 4-methyl-3-(((methyl(4-(methylamino)-1,3,5-triazin-2-yl)amino)carbonyl)amino)-N-(3-methyl-4-(1-methylethyl)phenyl)benzamide]	< 5 µM
CNc1cc(N(C)C(=O)Nc2cc(C(=O)Nc3cccc(N(C)C)c3)ccc2C)ncn1 [Example 26, N-(3-(dimethylamino)phenyl)-4-methyl-3-((methyl(6-(methylamino)-4-pyrimidinyl)amino)carbonylamino)benzamide]	< 5 µM
Cc1ccc(C(=O)Nc2cccc(C(C)C)c2)cc1NC(=O)N(CCCN1CCOCC1)c1ccncn1 [Example 22, 4-methyl-N-(3-(1-methylethyl)phenyl)-3-((((3-(4-morpholinyl)propyl)(4-pyrimidinyl)amino)carbonyl)amino)benzamide]	< 5 µM
CNc1ncnc(N(C)C(=O)Nc2cc(C(=O)Nc3cc(OC)cc(C(F)(F)F)c3)ccc2C)n1 [Example 36, 4-methyl-3-(((methyl(4-(methylamino)-1,3,5-triazin-2-yl)amino)carbonyl)amino)-N-(3-(methyloxy)-5-(trifluoromethyl)phenyl)benzamide]	< 5 µM
CNc1cc(N(C)C(=O)Nc2cc(C(=O)Nc3ccc4sc(C)nc4c3)ccc2C)ncn1 [Example 33, 4-methyl-N-(2-methyl-1,3-benzothiazol-5-yl)-3-(((methyl(6-(methylamino)-4-pyrimidinyl)amino)carbonyl)amino)benzamide]	< 5 µM
CNc1cc(N(C)C(=O)Nc2cc(C(=O)Nc3ccc(C(C)C)c(C)c3)ccc2C)ncn1 [Example 19]	< 5 µM
CNc1cc(N(C)C(=O)Nc2cc(C(=O)Nc3cc(C4CCCCC4)ccc3OC)ccc2C)ncn1 [Example 43, N-(5-cyclohexyl-2-(methyloxy)phenyl)-4-methyl-3-(((methyl(6-(methylamino)-4-pyrimidinyl)amino)carbonyl)amino)benzamide]	< 5 µM
CNc1ncnc(N(C)C(=O)Nc2cc(C(=O)Nc3cccc(C(F)(F)F)c3C)ccc2C)n1 [Example 37, 4-methyl-3-(((methyl(4-(methylamino)-1,3,5-triazin-2-yl)amino)carbonyl)amino)-N-(2-methyl-3-(trifluoromethyl)phenyl)benzamide]	< 5 µM
CNc1ncnc(N(C)C(=O)Nc2cc(C(=O)Nc3ccc(Cl)cc3)ccc2C)n1 [Example 47, N-(4-chlorophenyl)-4-methyl-3-(((methyl(4-(methylamino)-1,3,5-triazin-2-yl)amino)carbonyl)amino) benzamide]	< 5 µM
CCCCNC(=O)c1ccc(C)c(NC(=O)N(C)c2ncnc(NC)n2)c1 [Example 48, N-butyl-4-methyl-3-(((methyl(4-(methylamino)-1,3,5-triazin-2-yl)amino)carbonyl)amino)benzamide]	< 5 µM
CNc1ncnc(N(C)C(=O)Nc2cc(C(=O)Nc3ccc4sc(C)nc4c3)ccc2C)n1 [Example 35, 4-methyl-N-(2-methyl-1,3-benzothiazol-5-yl)-3-(((methyl(4-(methylamino)-1,3,5-triazin-2-yl)amino)carbonyl)amino)benzamide]	< 5 µM
CCCCNC(=O)c1ccc(C)c(NC(=O)N(C)c2cc(NC)ncn2)c1 [Example 42, N-butyl-4-methyl-3-(((methyl(6-(methylamino)-4-pyrimidinyl)amino)carbonyl)amino)benzamide]	< 5 µM
CNc1ncnc(N(C)C(=O)Nc2cc(C(=O)NCc3ccccc3)ccc2C)n1 [Example 49, 4-methyl-3-(((methyl(4-(methylamino)-1,3,5-triazin-2-yl)amino)carbonyl)amino)-N-(phenylmethyl) benzamide]	< 5 µM
CNc1ncnc(N(C)C(=O)Nc2cc(C(=O)Nc3ccc(C(C)(C)C)cc3)ccc2C)n1 [Example 27, N-(4-1,1-(dimethylethyl)phenyl)-4-methyl-3-(((methyl(4-(methylamino)-1,3,5-triazin-2-yl)amino)carbonyl)amino)benzamide]	< 5 µM
CNc1ncnc(N(C)C(=O)Nc2cc(C(=O)Nc3cccc(-c4ccccc4)c3)ccc2C)n1 [Example 39, N-(1,1′-biphenyl-3-yl)-4-methyl-3-(((methyl(4-(methylamino)-1,3,5-triazin-2-yl)amino)carbonyl)amino)benzamide]	< 5 µM
CNc1ncnc(N(C)C(=O)Nc2cc(C(=O)Nc3ccccc3)ccc2C)n1 [Example 44, 4-methyl-3-(((methyl(4-(methylamino)-1,3,5-triazon-2-yl)amino)carbonyl)amino)-N-phenylbenzamide]	< 5 µM
COc1ccc(C2CCCCC2)cc1NC(=O)c1ccc(C)c(NC(=O)N(CCCN2CCOCC2)c2ccncn2)c1 [Example 46, N-(5-cyclohexyl-2-(methyloxy)phenyl)-4-methyl-3-((((3-(4-morpholinyl)propyl)(4-pyrimidinyl)amino)carbonyl)amino)benzamide]	< 5 µM
